Laboratory results published in patent US10487093B2, “Heterocyclic compounds, in particular 2-oxo-4,4,5,5,6,6,7,7-octahydrobenzoxazole derivatives, and their use as antibacterial compounds” (priority 2016, dated 2019).
Values after ≈ are worked out from the molar mass of the structure shown.

Columns and labels:
E. coli MG1655 = assay: MIC, broth microdilution (CLSI) versus planktonic bacteria; type: cell-based, Escherichia coli; conditions: Escherichia coli, MG1655, read-out: MIC, Ec MG1655 WT
[1] = system: Streptococcus pneumoniae ATCC 49619; assay: as above; type: cell-based; conditions: ATCC49619; Streptococcus pneumoniae ATCC 49619; 16-20 h; mode of three independent experiments; read-out: MIC, Sp ATCC 49619
[2] = system: Enterobacter cloacae NCTC 13406; assay: as above; type: cell-based; conditions: NCTC13406; Enterobacter cloacae NCTC 13406; 16-20 h; mode of three independent experiments; read-out: MIC, Ecl NCTC 13406
[3] = system: Enterococcus faecalis ATCC 29212; assay: as above; type: cell-based; conditions: ATCC29212, 16-20 h, mode of three independent experiments, read-out: MIC, Ef ATCC 29212
[4] = system: Acinetobacter baumannii NCTC 13420; assay: as above; type: cell-based; conditions: NCTC13420; Acinetobacter baumannii NCTC 13420; 16-20 h; mode of three independent experiments; read-out: MIC, Ab NCTC 13420
E. coli MG1655 D87G = type: cell-based, Escherichia coli; conditions: compared to the isogenic parent strain E. coli MG1655; D87G mutation on DNA gyrase subunit GyrA
E. coli NCTC 13476 = assay: MIC, broth microdilution (CLSI) versus planktonic bacteria; type: cell-based; conditions: NCTC13476; Escherichia coli NCTC 13476; 16-20 h; mode of three independent experiments; read-out: MIC, Ec NCTC 13476
E. coli MG1655 S83L = type: cell-based, Escherichia coli; conditions: compared to the isogenic parent strain E. coli MG1655; S83L mutation on DNA gyrase subunit GyrA
E. coli ATCC BAA-2452 = assay: MIC, broth microdilution (CLSI) versus planktonic bacteria; type: cell-based; conditions: Escherichia coli ATCC BAA-2452; 16-20 h; mode of three independent experiments; read-out: MIC, Ec ATCC BAA 2452
[5] = system: human hepatic cell line (HepG2 ATCC HB-8065); assay: Human cell viability assay (CellTiter-Glo); conditions: Homo sapiens, HepG2, 24 h, read-out: IC50 (μg/mL) HepG2
[6] = system: Staphylococcus aureus ATCC 29213; assay: MIC, broth microdilution (CLSI) versus planktonic bacteria; type: cell-based; conditions: ATCC29213; Staphylococcus aureus ATCC 29213; 16-20 h; mode of three independent experiments; read-out: MIC, Sa ATCC 29213
[7] = system: Enterococcus faecium ATCC 19434; assay: as above; type: cell-based; conditions: ATCC19434, 16-20 h, mode of three independent experiments, read-out: MIC, Efm ATCC 19434
[8] = system: Escherichia coli ATCC 25922; assay: as above; type: cell-based; conditions: ATCC25922; Escherichia coli ATCC 25922; 16-20 h; mode of three independent experiments; read-out: MIC, Ec ATCC 25922
[9] = system: Haemophilus influenzae ATCC 49247; assay: as above; type: cell-based; conditions: ATCC49247; Haemophilus influenzae ATCC 49247; 16-20 h; mode of three independent experiments; read-out: MIC, Hi ATCC 49247
[10] = system: fluoroquinolone-resistant Enterococcus faecium ATCC 700221; assay: as above; type: cell-based; conditions: ATCC700221, 16-20 h, mode of three independent experiments, read-out: MIC, Efm ATCC 700221
[11] = system: Acinetobacter baumannii ATCC 19606; assay: as above; type: cell-based; conditions: ATCC19606; Acinetobacter baumannii ATCC 19606; 16-20 h; mode of three independent experiments; read-out: MIC, Ab ATCC 19606
[12] = system: Pseudomonas aeruginosa ATCC 27853; assay: as above; type: cell-based; conditions: ATCC27853; Pseudomonas aeruginosa ATCC 27853; 16-20 h; mode of three independent experiments; read-out: MIC, Pa ATCC 27853

## N#Cc1cccc(-c2cccc(CN[C@@H]3CC[C@@H]4[C@@H](C3)OC(=O)N4c3ccc4c(n3)NC(=O)CO4)c2O)n1 [Compound 40, 6-[3-({[(3aR,6R,7aR)-2-oxo-3-{3-oxo-2H,3H,4H-pyrido[3,2-b][1,4]oxazin-6-yl}-octahydro-1,3-benzoxazol-6-yl]amino}methyl)-2-hydroxyphenyl]pyridine-2-carbonitrile]
E. coli MG1655
  MIC: < 1 µg/mL
[1]
  MIC: 1 to 10 µg/mL (≈ 1.95 to 19.5 µM)
[2]
  MIC: < 1 µg/mL
[3]
  MIC: < 1 µg/mL
[4]
  MIC: < 1 µg/mL
E. coli MG1655 D87G
  Fold increase in MIC, E. coli MG1655 D87G: 1 fold
E. coli NCTC 13476
  MIC: < 1 µg/mL
E. coli MG1655 S83L
  Fold increase in MIC, E. coli MG1655 S83L: 1 fold
E. coli ATCC BAA-2452
  MIC: < 1 µg/mL
[5]
  IC50: 10 to 100 µg/mL (≈ 19.5 to 195 µM)
[6]
  MIC: < 1 µg/mL
[7]
  MIC: < 1 µg/mL
[8]
  MIC: < 1 µg/mL
[9]
  MIC: < 1 µg/mL
[10]
  MIC: < 1 µg/mL
[11]
  MIC: < 1 µg/mL
[12]
  MIC: < 1 µg/mL

## COc1cnc2ccc(=O)n(CCN[C@H]3CC[C@H]4[C@H](C3)OC(=O)N4c3ccc4c(n3)NC(=O)CS4)c2c1 [Compound 81, 1-(2-{[(3aS,6S,7aS)-2-oxo-3-{3-oxo-2H,3H,4H-pyrido[3,2-b][1,4]thiazin-6-yl}-octahydro-1,3-benzoxazol-6-yl]amino}ethyl)-7-methoxy-1,2-dihydro-1,5-naphthyridin-2-one]
E. coli MG1655
  MIC: < 1 µg/mL
[1]
  MIC: < 1 µg/mL
[2]
  MIC: < 1 µg/mL
[3]
  MIC: < 1 µg/mL
[4]
  MIC: < 1 µg/mL
E. coli MG1655 D87G
  Fold increase in MIC, E. coli MG1655 D87G: 1 fold
E. coli NCTC 13476
  MIC: < 1 µg/mL
E. coli MG1655 S83L
  Fold increase in MIC, E. coli MG1655 S83L: 1 fold
E. coli ATCC BAA-2452
  MIC: < 1 µg/mL
[5]
  IC50: 10 to 100 µg/mL (≈ 19.1 to 191 µM)
[6]
  MIC: < 1 µg/mL
[7]
  MIC: < 1 µg/mL
[8]
  MIC: < 1 µg/mL
[9]
  MIC: < 1 µg/mL
[10]
  MIC: < 1 µg/mL
[11]
  MIC: < 1 µg/mL
[12]
  MIC: 1 to 10 µg/mL (≈ 1.91 to 19.1 µM)

## COc1ccc2ccc(=O)n(CCN[C@H]3CC[C@H]4[C@H](C3)OC(=O)N4c3ccc4c(n3)NC(=O)CO4)c2n1 [Compound 29, 1-(2-{[(3aS,6S,7aS)-2-oxo-3-{3-oxo-2H,3H,4H-pyrido[3,2-b][1,4]oxazin-6-yl}-octahydro-1,3-benzoxazol-6-yl]amino}ethyl)-7-methoxy-1,2-dihydro-1,8-naphthyridin-2-one]
E. coli MG1655
  MIC: < 1 µg/mL
[1]
  MIC: < 1 µg/mL
[2]
  MIC: < 1 µg/mL
[3]
  MIC: < 1 µg/mL
[4]
  MIC: < 1 µg/mL
E. coli MG1655 D87G
  Fold increase in MIC, E. coli MG1655 D87G: 2 fold
E. coli MG1655 S83L
  Fold increase in MIC, E. coli MG1655 S83L: 1 fold
E. coli ATCC BAA-2452
  MIC: < 1 µg/mL
[5]
  IC50: 10 to 100 µg/mL (≈ 19.7 to 197 µM)
[6]
  MIC: < 1 µg/mL
[7]
  MIC: < 1 µg/mL
[8]
  MIC: < 1 µg/mL
[9]
  MIC: < 1 µg/mL
[10]
  MIC: < 1 µg/mL
[11]
  MIC: < 1 µg/mL
[12]
  MIC: < 1 µg/mL

## COc1ccc2ccc(=O)n(CCN[C@H]3CC[C@H]4[C@H](C3)OC(=O)N4c3ccc4c(n3)NC(=O)CO4)c2c1 [Compound 102, 1-(2-{[(3aS,6S,7aS)-2-oxo-3-{3-oxo-2H,3H,4H-pyrido[3,2-b][1,4]oxazin-6-yl}-octahydro-1,3-benzoxazol-6-yl]amino}ethyl)-7-methoxy-1,2-dihydroquinolin-2-one]
E. coli MG1655
  MIC: < 1 µg/mL
[1]
  MIC: < 1 µg/mL
[2]
  MIC: < 1 µg/mL
[3]
  MIC: < 1 µg/mL
[4]
  MIC: < 1 µg/mL
E. coli MG1655 D87G
  Fold increase in MIC, E. coli MG1655 D87G: 2 fold
E. coli NCTC 13476
  MIC: < 1 µg/mL
E. coli MG1655 S83L
  Fold increase in MIC, E. coli MG1655 S83L: 2 fold
E. coli ATCC BAA-2452
  MIC: < 1 µg/mL
[5]
  IC50: 10 to 100 µg/mL (≈ 19.8 to 198 µM)
[6]
  MIC: < 1 µg/mL
[7]
  MIC: < 1 µg/mL
[8]
  MIC: < 1 µg/mL
[10]
  MIC: < 1 µg/mL
[11]
  MIC: < 1 µg/mL
[12]
  MIC: 1 to 10 µg/mL (≈ 1.98 to 19.8 µM)

## COc1cnc2ccc(=O)n(CCN[C@@H]3CC[C@@H]4[C@@H](C3)OC(=O)N4c3ccc4c(n3)NC(=O)CO4)c2n1 [Compound 87, (3aR,6R,7aR)-6-[(2-{3-methoxy-6-oxo-5H,6H-pyrido[2,3-b]pyrazin-5-yl}ethyl)amino]-3-{3-oxo-2H,3H,4H-pyrido[3,2-b][1,4]oxazin-6-yl}-octahydro-1,3-benzoxazol-2-one]
E. coli MG1655
  MIC: < 1 µg/mL
[1]
  MIC: < 1 µg/mL
[2]
  MIC: < 1 µg/mL
[3]
  MIC: < 1 µg/mL
[4]
  MIC: < 1 µg/mL
E. coli MG1655 D87G
  Fold increase in MIC, E. coli MG1655 D87G: 2 fold
E. coli NCTC 13476
  MIC: < 1 µg/mL
E. coli MG1655 S83L
  Fold increase in MIC, E. coli MG1655 S83L: 2 fold
E. coli ATCC BAA-2452
  MIC: < 1 µg/mL
[5]
  IC50: 10 to 100 µg/mL (≈ 19.7 to 197 µM)
[6]
  MIC: < 1 µg/mL
[7]
  MIC: 1 to 10 µg/mL (≈ 1.97 to 19.7 µM)
[8]
  MIC: < 1 µg/mL
[9]
  MIC: < 1 µg/mL
[11]
  MIC: < 1 µg/mL
[12]
  MIC: < 1 µg/mL
